For orientation: IC50 means the concentration at which inhibition is half-maximal. Higher therefore signals lower potency.

Results on 39 molecules are retold here after ChEMBL document CHEMBL1143218 (Bioorg Med Chem Lett, 2008).

For test [1], the target named is Sodium-dependent serotonin transporter (Homo sapiens, UniProt P31645).
The target of test [2] is Sodium-dependent dopamine transporter (Homo sapiens, UniProt Q01959).
Chain of Sodium-dependent dopamine transporter (Q01959 whole entry): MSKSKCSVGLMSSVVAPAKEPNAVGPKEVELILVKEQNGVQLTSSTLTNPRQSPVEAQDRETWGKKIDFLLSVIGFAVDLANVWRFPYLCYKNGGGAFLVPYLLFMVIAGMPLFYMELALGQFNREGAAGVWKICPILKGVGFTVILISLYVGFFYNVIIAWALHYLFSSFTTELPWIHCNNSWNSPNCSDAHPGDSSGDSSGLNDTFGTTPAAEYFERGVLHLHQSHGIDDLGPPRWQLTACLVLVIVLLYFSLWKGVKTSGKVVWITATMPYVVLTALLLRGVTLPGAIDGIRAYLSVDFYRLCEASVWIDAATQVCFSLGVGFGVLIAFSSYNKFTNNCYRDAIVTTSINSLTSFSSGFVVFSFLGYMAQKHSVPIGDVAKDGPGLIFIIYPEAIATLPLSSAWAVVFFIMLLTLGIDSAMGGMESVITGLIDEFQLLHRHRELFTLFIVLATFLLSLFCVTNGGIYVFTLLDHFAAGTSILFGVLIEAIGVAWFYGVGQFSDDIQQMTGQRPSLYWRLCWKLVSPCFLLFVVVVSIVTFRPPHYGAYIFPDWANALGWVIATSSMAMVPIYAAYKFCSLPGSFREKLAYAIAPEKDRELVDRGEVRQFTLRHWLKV

Chain of Sodium-dependent serotonin transporter (P31645 whole entry): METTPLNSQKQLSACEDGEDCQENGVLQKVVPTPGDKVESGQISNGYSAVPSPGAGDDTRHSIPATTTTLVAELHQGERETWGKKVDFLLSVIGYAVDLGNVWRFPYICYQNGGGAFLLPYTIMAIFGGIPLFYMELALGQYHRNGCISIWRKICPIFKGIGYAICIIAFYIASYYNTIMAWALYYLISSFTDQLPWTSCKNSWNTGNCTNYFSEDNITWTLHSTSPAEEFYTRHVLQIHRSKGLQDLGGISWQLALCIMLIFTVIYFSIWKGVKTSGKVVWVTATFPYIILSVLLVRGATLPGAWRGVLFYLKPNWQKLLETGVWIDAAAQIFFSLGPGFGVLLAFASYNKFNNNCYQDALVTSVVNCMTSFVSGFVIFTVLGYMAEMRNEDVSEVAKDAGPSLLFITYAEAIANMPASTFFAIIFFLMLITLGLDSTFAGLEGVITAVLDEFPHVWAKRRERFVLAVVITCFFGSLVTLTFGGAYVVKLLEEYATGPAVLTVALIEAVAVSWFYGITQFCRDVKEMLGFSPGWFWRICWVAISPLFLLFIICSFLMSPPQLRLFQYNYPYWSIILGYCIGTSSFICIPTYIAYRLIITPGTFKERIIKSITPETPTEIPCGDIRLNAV

Turning to `CCNC(=O)[C@@]1(c2ccccc2)CC1CN` (mixture of isomers), the IC50 in test [1] and in test [2] was more than 10 µM in each case.

For the molecule `CC(C)N(C(=O)[C@@]1(c2ccccc2)CC1CN)C(C)C` (mixture of isomers), the IC50 in test [1] and in test [2] was more than 10 µM each time.

The molecule `NCC1C[C@@]1(C(=O)N1CCCC1)c1ccccc1` (mixture of isomers) came in with an IC50 in test [2] of more than 10 µM. `CCN(CC)C(=O)[C@@]1(c2ccccc2)CC1CNC` (mixture of isomers): the IC50 in test [1] is 5.4 µM; in test [2] it was more than 10 µM.

On to `CCN(CC)C(=O)[C@@]1(c2ccccc2)C[C@H]1CNC(=O)CN` (racemic), for which the results for the IC50 in test [1] and in test [2] were 2.2 µM and more than 10 µM, respectively. As to `NCC1CC1(C(=O)N1CCOCC1)c1ccccc1` (racemic), the IC50 in test [1] worked out at 1.7 µM; in test [2], 7.4 µM. As for `NCC1CC1(C(=O)N1CCCCC1)c1ccccc1` (racemic), the IC50 in test [1] was 1.2 µM; in test [2], 4.6 µM.

Turning to `CCN(CC)C(=O)C1(c2ccccc2)CC1CNCC(OC)OC` (racemic), the IC50 in test [1] is 1.1 µM; in test [2], more than 10 µM.

In the case of `CCCCN(CC)C(=O)C1(c2ccccc2)CC1CN` (racemic), the IC50 in test [1] is 2 µM; in test [2], more than 10 µM. With `CCN(CC)C(=O)C1(c2ccccc2)CC1CNCc1ncco1` (racemic), the IC50 in test [1] is 1.6 µM; in test [2] it was more than 10 µM. `CCN(Cc1ccccc1)C(=O)C1(c2ccccc2)CC1CN` (racemic): the IC50 in test [1] was 0.16 µM; in test [2], more than 10 µM. In test [2], `NCC1CC1(C(=O)C1NCCc2ccccc21)c1ccccc1` (racemic) registered an IC50 of more than 10 µM. In the case of `CC(C)N(C(=O)C1(c2ccccc2)CC1CNC(=O)CN)C(C)C` (racemic), the IC50 in test [1] is more than 10 µM; in test [2], 4.6 µM. Consider `CCN(CC)C(=O)C1(c2ccccc2)CC1CNCc1ccncc1` (racemic), for which the IC50 in test [1] and in test [2] was more than 10 µM throughout. As for `C=CCN(CC)C(=O)C1(c2ccccc2)CC1CN` (racemic), the IC50 in test [1] was 0.28 µM; in test [2], more than 10 µM. For `NCC1CC1(C(=O)N1CCc2ccccc21)c1ccccc1` (racemic) the same measures were 0.013 µM and 3.9 µM. On the same counts, the results for `NCC1CC1(C(=O)NCc1ccccc1)c1ccccc1` (racemic) are 3.2 µM and more than 10 µM. On the same counts, the results for `CCN(C)C(=O)C1(c2ccccc2)CC1CN` (racemic) are 0.83 µM and 2.4 µM. Take `CCN(CC)C(=O)C1(c2ccccc2)CC1CNCc1cccnc1` (racemic): the IC50 in test [1] and in test [2] was more than 10 µM in each case. As to `CCN(CC)C(=O)C1(c2ccccc2)CC1CNCc1ccc[nH]1` (racemic), the IC50 in test [1] is 4.4 µM; in test [2] it was more than 10 µM. On the same counts, the results for `CCN(CC)C(=O)C1(c2ccccc2)CC1CNCc1ccco1` (racemic) are more than 10 µM and more than 10 µM. For `NCC1CC1(C(=O)N1CCCCCC1)c1ccccc1` (racemic) the same measures were 0.64 µM and more than 10 µM. On the same counts, the results for `CCN(CC)C(=O)C1(c2ccccc2)CC1CNCc1cnco1` (racemic) are 4.8 µM and more than 10 µM.

Take `CCN(C(=O)C1(c2ccccc2)CC1CN)C(C)(C)C` (racemic): the IC50 in test [1] and in test [2] was more than 10 µM each time. For the molecule `CCCCNCC1CC1(C(=O)N(CC)CC)c1ccccc1` (racemic), the IC50 in test [1] and in test [2] was more than 10 µM throughout.

In the case of `CCNCC1CC1(C(=O)N(CC)CC)c1ccccc1` (racemic), the half-inhibitory concentration (IC50) is 1.3 µM in test [1] and more than 10 µM in test [2]. In the case of `NCC1CC1(C(=O)Nc1ccccc1)c1ccccc1` (racemic), the IC50 in test [1] and in test [2] was more than 10 µM each time.

In the case of `CCN(CC)C(=O)C1(c2ccccc2)CC1CNCC(C)C` (racemic), the 50% inhibitory concentration (IC50) in test [1] and in test [2] was more than 10 µM throughout.

For the molecule `CCN(CC)C(=O)C1(c2ccccc2)CC1CNCc1ccccn1` (racemic), the IC50 in test [1] was determined as 3.5 µM; in test [2], 6.2 µM. For the molecule `CCN(CCOC)C(=O)C1(c2ccccc2)CC1CN` (racemic), the IC50 in test [1] is 1.3 µM; in test [2], more than 10 µM.

Consider `CCN(C(=O)C1(c2ccccc2)CC1CN)C1CCCCC1` (racemic), for which the values for the IC50 in test [1] and in test [2] were 7.5 µM and more than 10 µM, respectively. On the same counts, the results for `CCCN(CC)C(=O)C1(c2ccccc2)CC1CN` (racemic) are 1.7 µM and more than 10 µM. On the same counts, the results for `CCN(C(=O)C1(c2ccccc2)CC1CN)c1ccccc1` (racemic) are 4.4 µM and more than 10 µM. On the same counts, the results for `CCN(CC)C(=O)C1(c2ccccc2)CC1CNCC1CCCC1` (racemic) are more than 10 µM and more than 10 µM. For `NCC(=O)NCC1CC1(C(=O)C1NCCc2ccccc21)c1ccccc1` (racemic), the IC50 in test [2] was more than 10 µM. On to `NCC(=O)NCC1CC1(C(=O)N1CCc2ccccc21)c1ccccc1` (racemic), for which the IC50 in test [1] is 0.077 µM; in test [2], more than 10 µM. On the same counts, the results for `NCC1CC1(C(=O)N1CCCc2ccccc21)c1ccccc1` (racemic) are 0.1 µM and more than 10 µM. For `NCC1CC1(C(=O)NC1CC1)c1ccccc1` (racemic) the same measures were more than 10 µM and more than 10 µM. `CCN(CC)C(=O)C1(c2ccccc2)CC1CN(C)C` (racemic) [N,N-DIMETHYL MILNACIPRAN]: the IC50 in test [1] is more than 10 µM; in test [2], 4.5 µM.
